US11098040B2, “Compounds and methods of use” (Ferro Therapeutics, Inc., priority 2018, dated 2021)
Like-named read-outs stand apart in the source and are kept apart here.

How the values were obtained:
[1] = Whole blood stability, mouse; type: in vitro ADME
Source text: (§1) The results of the assay on stability in blood and IC50 values for pancreatic cancer cell line KP4 are given below in Table 24.

[2] = Whole blood stability, human; type: in vitro ADME
Source text: as §1

KP4 = assay: Cell viability assay (CellTiter Glo), pancreatic ductal adenocarcinoma KP4; type: cell-based, human; settings: pancreatic cancer cell line KP4, 96 hours, CellTiter Glo, read-out: IC50 μM KP4
Summary of the method: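 Luminescent ATP readout (CellTiter Glo) after 96 h compound exposure, normalized to DMSO-treated cells as maximum. Compounds ran in duplicate, nine 3-fold steps from 30 μM down to 4.6 nM, final DMSO ≤0.25%; KP4 plated overnight at 1,000–10,000 cells/well. Outputs: IC50, relative IC50 or % top inhibition.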

Compound	Whole Blood Stability % Remaining at 37° C. Mouse ([1]; 0 min) [%]	Whole Blood Stability % Remaining at 37° C. Mouse ([1]; 30 min) [%]	Whole Blood Stability % Remaining at 37° C. Mouse ([1]; 60 min) [%]	Whole Blood Stability % Remaining at 37° C. Human ([2]; 0 min) [%]	Whole Blood Stability % Remaining at 37° C. Human ([2]; 30 min) [%]	Whole Blood Stability % Remaining at 37° C. Human ([2]; 60 min) [%]	IC50 (KP4; Homo sapiens, KP-4, 96 h) [µM]	IC50 (KP4) [µM]
COC(=O)[C@H]1Cc2c([nH]c3ccccc23)[C@H](c2ccc(NC(C)=O)cc2)N1C(=O)CCl [Compound 80]	100.0	72.3	58.6	100.0	60.9	49.6	0.01 to 0.1	
COC(=O)[C@H]1Cc2c([nH]c3ccccc23)[C@H](c2ccc(S(=O)(=O)N(C)C)cc2)N1C(=O)CCl [Compound 23]	100.0	55.5	34.4	100.0	48.9	30.8	< 0.01	
COC(=O)[C@H]1Cc2c([nH]c3ccccc23)[C@@H](c2ccc(OC(=O)C(C)(C)C)cc2)N1C(=O)CCl [Compound 13a]	100.0	0.0	0.0	100.0	56.6	59.9	0.5 to 1	
CN(C)C(=O)[C@H]1Cc2c([nH]c3ccccc23)[C@@H](c2ccc([Si](C)(C)C)cc2)N1C(=O)CCl [Compound 67a]	100.0	52.4	18.2	100.0	35.5	15.5	> 1	
CN(C)C(=O)[C@H]1Cc2c([nH]c3ccccc23)[C@H](C2CCN(C(=O)OC(C)(C)C)CC2)N1C(=O)CCl [Compound 42]	100.0	72.9	62.0	100.0	46.2	28.5	> 1	
COC(=O)[C@H]1Cc2c([nH]c3ccccc23)[C@H](c2ccc(S(=O)(=O)N3CCC(O)CC3)cc2)N1C(=O)CCl [Compound 35]	100.0	32.9	14.8	100.0	39.3	20.5	0.01 to 0.1	
COC(=O)[C@H]1Cc2c([nH]c3ccccc23)[C@H](c2ccc(C(=O)OCC3CCC3)cc2)N1C(=O)CCl [Compound 85]	100.0	0.0	0.0	100.0	73.5	54.4	< 0.01	
COC(=O)[C@H]1Cc2c([nH]c3ccccc23)[C@H](c2ccc(C(=O)OCC3CC3)cc2)N1C(=O)CCl [Compound 75]	100.0	1.8	0.9	100.0	68.1	41.5	< 0.01	
COC(=O)[C@H]1Cc2c([nH]c3ccccc23)[C@H](c2ccc(C(=O)OC[C@]34C[C@H]5C[C@H](C[C@H](C5)C3)C4)cc2)N1C(=O)CCl [Compound 6]	100.0	12.4	4.7	100.0	54.8	33.0	0.01 to 0.1	
C[C@H]1Cc2c([nH]c3ccccc23)[C@H](c2ccc(S(=O)(=O)N[C@]34CC5C[C@H](C[C@H](C5)C3)C4)cc2)N1C(=O)CCl [Compound 101]	100.0	82.2	113.2	100.0	46.8	29.8	< 0.01	
COC(=O)[C@H]1Cc2c([nH]c3ccccc23)[C@H](C23CC(C(=O)OC)(C2)C3)N1C(=O)CCl [Compound 62]	100.0	0.0	0.0	100.0	82.4	43.5	0.01 to 0.1	
C[C@H]1Cc2c([nH]c3ccccc23)[C@H](c2ccc(C(=O)N[C@]34CC5C[C@H](C[C@H](C5)C3)C4)cc2)N1C(=O)CCl [Compound 102]	100.0	87.2	90.1	100.0	96.3	75.6	< 0.01	
CN(C)C(=O)[C@H]1Cc2c([nH]c3ccccc23)[C@H](c2ccc(C(=O)N(CCC(=O)OC(C)(C)C)C(C)(C)C)cc2)N1C(=O)CCl [Compound 54]	100.0	42.9	13.8	100.0	44.9	40.4	0.01 to 0.1	
COC(=O)c1ccc([C@H]2c3sc4ccccc4c3C[C@H](C(=O)OC)N2C(=O)CCl)cc1 [Example 55c]	100.0	0.0	0.0	100.0	46.0	27.5	0.01 to 0.1	
COCCN(C(=O)c1ccc([C@H]2c3[nH]c4ccccc4c3C[C@H](C(=O)N(C)C)N2C(=O)CCl)cc1)C(C)(C)C [Compound 52]	100.0	79.9	52.0	100.0	51.8	59.4	0.01 to 0.1	
C=CCOC(=O)c1ccc([C@H]2c3[nH]c4ccccc4c3C[C@H](C(=O)OC)N2C(=O)CCl)cc1 [Compound 74]	100.0	0.0	0.0	100.0	58.2	29.0	< 0.01	
CN(C)C(=O)[C@H]1Cc2c([nH]c3ccccc23)[C@H](c2ccc(S(=O)(=O)C3CC3)cc2)N1C(=O)CCl [Compound 70]	100.0	63.3	36.6	100.0	46.0	23.8	0.1 to 0.5	
CN(C)C(=O)c1ccc([C@H]2c3[nH]c4ccccc4c3C[C@H](C(N)=O)N2C(=O)CCl)cc1 [Compound 58]	100.0	89.9	67.0	100.0	64.4	40.5	> 1	
CN(C)C(=O)[C@H]1Cc2c([nH]c3ccccc23)[C@H](c2ccc(NC(=O)OC(C)(C)C)cc2)N1C(=O)CCl [Compound 56]	100.0	84.1	38.9	100.0	59.3	60.7	0.01 to 0.1	
CC[C@H]1Cc2c([nH]c3ccccc23)[C@H](c2ccc(C(=O)OC)cc2)N1C(=O)CCl [Compound 98]	100.0	0.0	0.0	100.0	79.2	54.8	< 0.01	
(1S,3R)-RSL3-alkyne [Compound BX, reference compound]	100.0	0.0	0.0	100.0	70.1	51.1		< 0.01
